Data as given in ChEMBL document CHEMBL3885861, “Open TG-GATES”.

Species: Rattus norvegicus
Test: Open TG-GATES - Regimen: Single
Assay type: toxicity, organism-based, Sprague-Dawley
Design: regimen Single, gender Male, age 6 weeks
Conditions: in vivo, po, 30 mg/kg, route gavage, dose level Low; for APTT / Bas / Eos / Fbg / Hb / Ht / Lym / MCH / MCHC / MCV / Mono / Neu / PT / Plat / RBC / Ret / WBC: tissue Blood; for KIDNEY_L / KIDNEY_R / KIDNEY_TOTAL: tissue Kidney; for LIVER: tissue Liver; for A/G / ALP / ALT / AST / BUN / CRE / Ca / Cl / DBIL / GLC / IP / K / LDH / Na / PL / RALB / TBIL / TC / TG / TP / gamma-GTP: tissue Plasma

NC(=O)N/N=C/c1ccc([N+](=O)[O-])o1 [NITROFURAZONE]
TERMINAL_BW (3 h): 181.5 g
APTT (3 h): 16.4 s
Bas (3 h): 0.2%
Eos (3 h): 0.8%
Fbg (3 h): 262.8 mg/dL
Hb (3 h): 13 g/dL
Ht (3 h): 40.6%
Lym (3 h): 68.6%
MCH (3 h): 21.7 pg
MCHC (3 h): 31.9%
MCV (3 h): 67.8 fL
Mono (3 h): 3.6%
Neu (3 h): 26%
PT (3 h): 14.8 s
Plat (3 h): 116.3 x10_4/uL
RBC (3 h): 598.8 x10_4/ul
Ret (3 h): 10.6%
WBC (3 h): 92.5 x10_2/uL
KIDNEY_L (3 h): 0.8 g
KIDNEY_R (3 h): 0.8 g
KIDNEY_TOTAL (3 h): 1.6 g
LIVER (3 h): 8.1 g
A/G (3 h): 0.9
ALP (3 h): 1547.4 IU/L
ALT (3 h): 43 IU/L
AST (3 h): 76.8 IU/L
BUN (3 h): 10.8 mg/dL
CRE (3 h): 0.2 mg/dL
Ca (3 h): 11.3 mg/dL
Cl (3 h): 106.4 meq/L
DBIL (3 h): 0.01 mg/dL
GLC (3 h): 175 mg/dL
IP (3 h): 9.7 mg/dL
K (3 h): 4 meq/L
LDH (3 h): 47.2 IU/L
Na (3 h): 142.8 meq/L
PL (3 h): 145.4 mg/dL
RALB (3 h): 2.4 g/dL
TBIL (3 h): 0.054 mg/dL
TC (3 h): 81 mg/dL
TG (3 h): 48 mg/dL
TP (3 h): 5.2 g/dL
gamma-GTP (3 h): 1.6 IU/L
TERMINAL_BW (6 h): 178.8 g
APTT (6 h): 16 s
Bas (6 h): 0%
Eos (6 h): 0.8%
Fbg (6 h): 253.2 mg/dL
Hb (6 h): 12.8 g/dL
Ht (6 h): 39.9%
Lym (6 h): 71%
MCH (6 h): 21.3 pg
MCHC (6 h): 32.1%
MCV (6 h): 66.5 fL
Mono (6 h): 2.8%
Neu (6 h): 24%
PT (6 h): 14.6 s
Plat (6 h): 116.1 x10_4/uL
RBC (6 h): 599.8 x10_4/ul
Ret (6 h): 10.6%
WBC (6 h): 83.2 x10_2/uL
KIDNEY_L (6 h): 0.8 g
KIDNEY_R (6 h): 0.8 g
KIDNEY_TOTAL (6 h): 1.6 g
LIVER (6 h): 7.6 g
A/G (6 h): 0.9
ALP (6 h): 1430.2 IU/L
ALT (6 h): 43.6 IU/L
AST (6 h): 76.8 IU/L
BUN (6 h): 7.8 mg/dL
CRE (6 h): 0.2 mg/dL
Ca (6 h): 11 mg/dL
Cl (6 h): 105 meq/L
DBIL (6 h): 0.01 mg/dL
GLC (6 h): 167.4 mg/dL
IP (6 h): 10.3 mg/dL
K (6 h): 4 meq/L
LDH (6 h): 52.6 IU/L
Na (6 h): 141 meq/L
PL (6 h): 139 mg/dL
RALB (6 h): 2.4 g/dL
TBIL (6 h): 0.062 mg/dL
TC (6 h): 83.6 mg/dL
TG (6 h): 33.2 mg/dL
TP (6 h): 5.1 g/dL
gamma-GTP (6 h): 1.6 IU/L
TERMINAL_BW (9 h): 179 g
APTT (9 h): 16 s
Bas (9 h): 0%
Eos (9 h): 1%
Fbg (9 h): 264.6 mg/dL
Hb (9 h): 12.7 g/dL
Ht (9 h): 39.3%
Lym (9 h): 76.6%
MCH (9 h): 21.1 pg
MCHC (9 h): 32.4%
MCV (9 h): 65.3 fL
Mono (9 h): 2.8%
Neu (9 h): 19%
PT (9 h): 14.9 s
Plat (9 h): 105.2 x10_4/uL
RBC (9 h): 601.4 x10_4/ul
Ret (9 h): 10.5%
WBC (9 h): 60.9 x10_2/uL
KIDNEY_L (9 h): 0.8 g
KIDNEY_R (9 h): 0.8 g
KIDNEY_TOTAL (9 h): 1.7 g
LIVER (9 h): 7.2 g
A/G (9 h): 0.9
ALP (9 h): 1367.6 IU/L
ALT (9 h): 42.8 IU/L
AST (9 h): 76 IU/L
BUN (9 h): 7.4 mg/dL
CRE (9 h): 0.1 mg/dL
Ca (9 h): 10.8 mg/dL
Cl (9 h): 105.6 meq/L
DBIL (9 h): 0.016 mg/dL
GLC (9 h): 163.6 mg/dL
IP (9 h): 10.3 mg/dL
K (9 h): 3.7 meq/L
LDH (9 h): 48.8 IU/L
Na (9 h): 141.4 meq/L
PL (9 h): 133.2 mg/dL
RALB (9 h): 2.4 g/dL
TBIL (9 h): 0.064 mg/dL
TC (9 h): 72.4 mg/dL
TG (9 h): 40.4 mg/dL
TP (9 h): 5.2 g/dL
gamma-GTP (9 h): 1.2 IU/L
TERMINAL_BW (24 h): 197.2 g
APTT (24 h): 15.8 s
Bas (24 h): 0.2%
Eos (24 h): 0.8%
Fbg (24 h): 260 mg/dL
Hb (24 h): 12.3 g/dL
Ht (24 h): 38%
Lym (24 h): 79%
MCH (24 h): 21.5 pg
MCHC (24 h): 32.3%
MCV (24 h): 66.5 fL
Mono (24 h): 3.6%
Neu (24 h): 16%
PT (24 h): 14.8 s
Plat (24 h): 112 x10_4/uL
RBC (24 h): 571.2 x10_4/ul
Ret (24 h): 10.6%
WBC (24 h): 87.3 x10_2/uL
KIDNEY_L (24 h): 0.9 g
KIDNEY_R (24 h): 0.9 g
KIDNEY_TOTAL (24 h): 1.8 g
LIVER (24 h): 9.3 g
A/G (24 h): 0.9
ALP (24 h): 1764.6 IU/L
ALT (24 h): 50.2 IU/L
AST (24 h): 75.2 IU/L
BUN (24 h): 14.6 mg/dL
CRE (24 h): 0.2 mg/dL
Ca (24 h): 11.4 mg/dL
Cl (24 h): 104.6 meq/L
DBIL (24 h): 0.014 mg/dL
GLC (24 h): 179.2 mg/dL
IP (24 h): 9.1 mg/dL
K (24 h): 4 meq/L
LDH (24 h): 64.2 IU/L
Na (24 h): 142 meq/L
PL (24 h): 145.6 mg/dL
RALB (24 h): 2.5 g/dL
TBIL (24 h): 0.048 mg/dL
TC (24 h): 80.2 mg/dL
TG (24 h): 62.6 mg/dL
TP (24 h): 5.4 g/dL
gamma-GTP (24 h): 1 IU/L
